Results: patent US8609654B1, “Compounds for enzyme inhibition” (Onyx Therapeutics, Inc., priority 2006, dated 2013)

Assays:
[1] = molecular target: T1, 20S proteasome subunit β5 vs immunoproteasome subunit LMP7 in RPMI-8226 cells (Homo sapiens, UniProt P28062+P28074); test: ELISA-based active site assay in RPMI-8226 cells (ELISA ratio); assay type: cell-based; settings: EC50 ratio with β5 antibody to LMP7 antibody, RPMI-8226 cells; >1 = prefers immunoproteasome
T1 construct: Cells expressing approximately equivalent amounts of immuno- and constitutive proteasome (e.g., RPMI-8226) are treated with test compound; endogenous in cells; host or cells: RPMI-8226 multiple myeloma cells
T1 sequence (P28074 60-263): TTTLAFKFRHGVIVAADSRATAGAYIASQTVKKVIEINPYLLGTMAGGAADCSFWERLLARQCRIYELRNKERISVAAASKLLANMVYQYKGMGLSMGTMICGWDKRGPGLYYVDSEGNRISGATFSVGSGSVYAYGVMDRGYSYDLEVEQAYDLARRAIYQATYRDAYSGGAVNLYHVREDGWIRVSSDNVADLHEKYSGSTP
T1 sequence (P28062 73-276): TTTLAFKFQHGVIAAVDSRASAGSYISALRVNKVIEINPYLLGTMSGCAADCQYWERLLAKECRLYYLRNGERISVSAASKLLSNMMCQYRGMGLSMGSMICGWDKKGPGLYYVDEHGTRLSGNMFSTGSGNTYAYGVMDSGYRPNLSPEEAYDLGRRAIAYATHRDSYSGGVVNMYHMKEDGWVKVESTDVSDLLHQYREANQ
Description: Lastly, a more cell-based approach can be utilized. Cells expressing approximately equivalent amounts of immuno- and constitutive proteasome (e.g., RPMI-8226) are treated with test compound, followed by the method for determining the activity of a proteasome inhibitor as described in application Ser. No. 11/254,541. The ratio of the EC50 generated in the ELISA-based assay using β5 antibody and LMP7 antibodies (ELISA ratio) provides the basis for determining the inhibitory preference of the test compound. […] In all three assays, a ratio of less than one denotes the molecule inhibits the CT-L activity of the constitutive proteasome better than that of the immunoproteasome. Ratios greater than one signifies the molecule inhibits chymotrypsin-like activity of the immunoproteasome better than that of the constitutive proteasome.
A suitable ELISA assay may be found in U.S. patent application Ser. No. 11/254,541, incorporated herein in its entirety. Briefly, RPMI-8226 cells were treated with 0.1 nM to 1 μM of proteasome Inhibitor B. The samples were then washed with phosphate-buffered saline (PBS) and lysed in hypotonic buffer (20 mM Tris pH 8, 5 mM EDTA) (Tris-HCl and EDTA are available from Teknova, Inc., Hollister, Calif.). Cellular debris was removed by centrifugation at 14,000 rpm in a microfuge (4° C.) for 2 min. The supernatant was transferred to a fresh tube, snap frozen in liquid nitrogen and stored at −80° C. After thawing on ice, the samples (30 μl for assays run in triplicate) were treated with 500 nM of Inhibitor A for 1 hr at room temperature. Following treatment with Inhibitor A, the lysate was denatured by addition of seven volumes of 1% SDS (210 μl) (available from Bio-Rad, Hercules, Calif.) and heating at 99° C. with vigorous shaking for 5 min. The sample was allowed to cool and two volumes (60 μl) of 10% Triton X-100 (available from Bio-Rad, Hercules, Calif.) was added.
Streptavidin sepharose beads (6.5 μl/well) (available from Amersham Biosciences, Piscataway, N.J.), were washed three times with 1 ml PBS (available from Mediatech, Inc., Herndon, Va.) in a microcentrifuge tube. The beads were resuspended in ELISA wash/block buffer (PBS+0.1% Tween 20+1% bovine serum albumin; 20 μl/well) and transferred to the wells of a 96 well filter plate (BSA is available from Sigma, St. Louis, Mo.; Tween is available from Calbiochem, San Diego, Calif.). Denatured whole blood or PBMC lysates that were treated with Inhibitor 3 were added to the filter plate wells containing the streptavidin sepharose beads (each sample assayed in triplicate) and incubated for 1 hr at room temperature with shaking (MultiScreen-DV Opaque Plates with low protein binding durapore membrane; available from Millipore, Billerica, Mass.). The unbound material was removed by gentle filtration and the beads were washed six times with ELISA wash/block buffer (200 μl each).
Primary antibody to human 20S proteasome subunit (35 (rabbit polyclonal antibody; available from Biomol, Plymouth Meeting, Pa.) or human 20S immunoproteasome subunit LMP7 (rabbit polyclonal antibody; available from Affinity BioReagents, Golden, Colo.) was diluted 1:1000 in ELISA wash/block buffer, added to the beads (100 μl/well), and incubated for 1 hr at room temperature on an orbital shaker. The beads were washed six times with ELISA wash/block buffer with gentle filtration. Secondary antibody treatment (1:5000) and washing are as described for primary antibody (goat anti-rabbit antibody-HRP conjugate; available from Biosource, Camarillo, Calif.). The beads were then resuspended in 100 μl chemiluminescent detection reagent (Super Signal Pico Chemiluminescent Substrate™; available from Pierce, Rockford, Ill.) and luminescence was read on a Tecan plate reader. […]

[2] = system: chymotryptic-like activity of isolated 20S constitutive proteasome vs immunoproteasome; test: Enzyme kinetic assay with isolated 20S proteasome preps, EC50 ratio of CT-L activity (20S ratio); assay type: biochemical; settings: constitutive proteasome to immunoproteasome, >1 = prefers immunoproteasome
Source text: Enzyme kinetic assays such as those disclosed in U.S. application Ser. No. 09/569,748, Example 2 and Stein et al., Biochem. (1996), 35, 3899-3908 use isolated 20S proteasome preps with greater than 90% constitutive proteasome subunits or immunoproteasome subunits. The inhibitory preference of the molecule is then based on the EC50 ratio of the chymotryptic-like activity of the constitutive proteasome to that of the immunoproteasome (20S ratio).

[3] = molecular target: T2, 26S proteasome CT-L activity in lysate of HT29 (constitutive) vs Sultan/Thp1 (immunoproteasome) cells (Homo sapiens, UniProt P28062+P28074); test: CT-L EC50 with 26S proteasome in cell lysate (Lysate ratio); assay type: biochemical; settings: HT29 lysate to Sultan/Thp1 lysate, >1 = prefers immunoproteasome
T2 construct: using 26S proteasome in the context of a cell lysate; endogenous in cells; host or cells: HT29 lysate (constitutive); Sultan or THP1 lysate (immunoproteasome)
T2 sequence (P28074 60-263): T1 sequence (P28074 60-263)
T2 sequence (P28062 73-276): T1 sequence (P28062 73-276)
Description: Alternatively, the CT-L EC50 of a compound can be determined using 26S proteasome in the context of a cell lysate. Compound is added to lysate generated from cells that either predominantly express constitutive proteasome (e.g., HT29) or immunoproteasome (e.g., THP1). Again, the inhibitory preference is then based on the EC50 ratio (Lysate ratio).

SMILES | Elisa ratio (beta5:LMP7) [1] | 20 S ratio (const:immuno) [2] | Lysate ratio (HT29:Sultan/Thp1) [3]
CC(NC(=O)OCc1ccccc1)C(=O)N[C@@H](Cc1ccccc1)C(=O)N[C@@H](Cc1ccc(O)cc1)C(=O)C1(C)CO1 (stereo partly drawn) | >3.0 | >5.0 | >3.0
C[C@H](NC(=O)OCc1ccccc1)C(=O)N[C@@H](Cc1c[nH]c2ccccc12)C(=O)N[C@@H](Cc1ccccc1)C(=O)C1(C)CO1 (stereo partly drawn) | >5.0 | >1.0 | >2.0
CC(C)C[C@H](NC(=O)OCc1ccccc1)C(=O)N[C@H](CC(C)C)C(=O)N[C@@H](Cc1ccccc1)C(=O)C1(C)CO1 (stereo partly drawn) | <0.5 | <0.5 | <0.5
C[C@H](NC(=O)OCc1ccccc1)C(=O)N[C@@H](Cc1ccc(C#N)cc1)C(=O)N[C@@H](Cc1ccccc1)C(=O)C1(C)CO1 (stereo partly drawn) | >5.0 | >1.0 | >2.0
CC1(C(=O)[C@H](Cc2ccccc2)NC(=O)[C@H](Cc2c[nH]c3ccccc23)NC(=O)C(CSCc2ccccc2)NC(=O)OCc2ccccc2)CO1 (stereo partly drawn) | >1.0 | >2.0 | >3.0
CC1(C(=O)[C@H](Cc2ccccc2)NC(=O)[C@H](Cc2ccccc2)NC(=O)C(CC(=O)O)NC(=O)OCc2ccccc2)CO1 (stereo partly drawn) | >2.0 | >3.0 | >3.0
CC(C)CC(NC(=O)OCc1ccccc1)C(=O)N[C@@H](CC(C)C)C(=O)N[C@@H](Cc1ccccc1)C(=O)C1(C)CO1 (stereo partly drawn) | <0.5 | <0.5 | <1.0
CC[C@H](C)C(NC(=O)OCc1ccccc1)C(=O)N[C@@H](Cc1c[nH]c2ccccc12)C(=O)N[C@@H](Cc1ccccc1)C(=O)C1(C)CO1 (stereo partly drawn) | >5.0 | >5.0 | >3.0
CC[C@@H](NC(=O)OCc1ccccc1)C(=O)N[C@@H](Cc1c[nH]c2ccccc12)C(=O)N[C@@H](Cc1ccccc1)C(=O)C1(C)CO1 (stereo partly drawn) [drawing 84] | >5.0 | >5.0 | >3.0
CC(NC(=O)OCc1ccccc1)C(=O)N[C@@H](Cc1c[nH]c2ccccc12)C(=O)N[C@@H](Cc1ccc(O)cc1)C(=O)C1(C)CO1 (stereo partly drawn) | >5.0 | >3.0 | >3.0
CC[C@H](C)C(NC(=O)[C@H](Cc1c[nH]c2ccccc12)NC(=O)[C@H](C)NC(=O)OCc1ccccc1)C(=O)C1(C)CO1 (stereo partly drawn) | <1.0 | <0.5 | <0.5
CC(NC(=O)OCc1ccccc1)C(=O)N[C@@H](Cc1ccccc1)C(=O)N[C@@H](CCc1ccccc1)C(=O)C1(C)CO1 (stereo partly drawn) | >3.0 | >2.0 | >3.0
Cc1ccc(C[C@H](NC(=O)[C@H](C)NC(=O)OCc2ccccc2)C(=O)N[C@@H](Cc2ccccc2)C(=O)C2(C)CO2)cc1 (stereo partly drawn) | >5.0 | >2.0 | >5.0
C[C@@H](NC(=O)OCc1ccccc1)C(=O)N[C@@H](Cc1c[nH]c2ccccc12)C(=O)N[C@@H](Cc1ccc(O)cc1)C(=O)C1(C)CO1 (stereo partly drawn) | >3.0 | >5.0 | >5.0
CC(C)C(NC(=O)OCc1ccccc1)C(=O)N[C@@H](Cc1c[nH]c2ccccc12)C(=O)N[C@@H](Cc1ccccc1)C(=O)C1(C)CO1 (stereo partly drawn) | >5.0 | >5.0 | >5.0
COc1ccc(C[C@H](NC(=O)C(C)NC(=O)OCc2ccccc2)C(=O)N[C@@H](Cc2ccc(O)cc2)C(=O)C2(C)CO2)cc1 (stereo partly drawn) [drawing 67] | >5.0 | >5.0 | >3.0
CC1(C(=O)[C@H](Cc2ccccc2)NC(=O)[C@H](Cc2ccccc2)NC(=O)[C@H](Cc2c[nH]cn2)NC(=O)OCc2ccccc2)CO1 (stereo partly drawn) | <1.0 | <1.0 | <1.0
CC[C@H](C)[C@@H](NC(=O)OCc1ccccc1)C(=O)N[C@@H](Cc1ccccc1)C(=O)N[C@@H](Cc1ccccc1)C(=O)C1(C)CO1 (stereo partly drawn) | >2.0 | >5.0 | >3.0
CC1(C(=O)[C@H](Cc2ccccc2)NC(=O)[C@H](Cc2c[nH]c3ccccc23)NC(=O)C(CC(=O)O)NC(=O)OCc2ccccc2)CO1 (stereo partly drawn) | >2.0 | >3.0 | >3.0
CC1(C(=O)[C@H](Cc2ccccc2)NC(=O)[C@H](Cc2c[nH]c3ccccc23)NC(=O)[C@@H](NC(=O)OCc2ccccc2)c2ccccc2)CO1 (stereo partly drawn) | >1.0 | >3.0 | >3.0
C[C@H](NC(=O)OCc1ccccc1)C(=O)N[C@@H](Cc1ccc(C(F)(F)F)cc1)C(=O)N[C@@H](Cc1ccccc1)C(=O)C1(C)CO1 (stereo partly drawn) | >2.0 | >1.0 | >3.0
C[C@H](NC(=O)OCc1ccccc1)C(=O)N[C@@H](Cc1c[nH]c2ccccc12)C(=O)N[C@H](C(=O)C1(C)CO1)c1ccccc1 (stereo partly drawn) | >3.0 | >2.0 | >5.0
CC(C)C(NC(=O)OCc1ccccc1)C(=O)N[C@@H](Cc1ccccc1)C(=O)N[C@@H](Cc1ccccc1)C(=O)C1(C)CO1 (stereo partly drawn) | >2.0 | >5.0 | >2.0
CC(NC(=O)OCc1ccccc1)C(=O)N1Cc2ccccc2C[C@@H]1C(=O)N[C@@H](Cc1ccccc1)C(=O)C1(C)CO1 (stereo partly drawn) | <0.5 | <1.0 | <1.0
